Results on two molecules are retold here after ChEMBL document CHEMBL1681723, “Phellinstatin, a new inhibitor of enoyl-ACP reductase produced by the medicinal fungus Phellinus linteus” (Bioorg Med Chem Lett, 2011).

Converted amounts (≈) assume the structure as drawn. The source made the active and inactive calls. The rule behind the calls is not given here.

Test [1] has as its system Staphylococcus aureus. As to the kind of experiment: Antibacterial activity against methicillin-resistant Staphylococcus aureus CCARM 3167 at 128 ug/ml. Format: functional, organism-based.
Test [2] has as its system Staphylococcus aureus. As to the kind of experiment: Antibacterial activity against Staphylococcus aureus RN4220 at 128 ug/ml. In kind it is functional, organism-based.
Test [3] concerns the target T1, Enoyl-[acyl-carrier-protein] reductase [NADPH] FabI (Staphylococcus aureus, UniProt Q6GI75).
T1 sequence (Q6GI75 whole entry): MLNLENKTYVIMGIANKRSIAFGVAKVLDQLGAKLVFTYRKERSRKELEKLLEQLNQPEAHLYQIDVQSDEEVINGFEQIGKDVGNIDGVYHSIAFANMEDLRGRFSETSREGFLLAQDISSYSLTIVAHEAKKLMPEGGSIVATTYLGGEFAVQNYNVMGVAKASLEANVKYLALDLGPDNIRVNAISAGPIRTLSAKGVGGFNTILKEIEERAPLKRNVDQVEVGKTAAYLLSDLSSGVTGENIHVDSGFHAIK
Put plainly: (§1) Inhibition of Staphylococcus aureus enoyl-ACP reductase assessed as increase of NADPH level.

For test [4], the system named is Staphylococcus aureus. Put plainly: Antibacterial activity against methicillin-resistant Staphylococcus aureus CCARM 3167. In kind it is functional.
The target in test [5] is T2, Enoyl-[acyl-carrier-protein] reductase [NADPH] FabI (Staphylococcus aureus) (UniProt Q6GI75).
T2 sequence (whole entry): T1 sequence (Q6GI75 whole entry)
The description is as §1.

Test [6] deals with Staphylococcus aureus. As to the kind of experiment: Antibacterial activity against Staphylococcus aureus RN4220. In kind it is functional.

`O=c1cc(O)cc([C@H]2c3c(cc(/C=C/c4ccc(O)c(O)c4)oc3=O)O[C@@H]2c2ccc(O)c(O)c2)o1` [HYPHOLOMINE B]: the result in the test with Staphylococcus aureus [1] and with Staphylococcus aureus [2] was inactive. The IC50 in test [3] amounted to 15.3 µM.
Take `O=c1cc(O)cc([C@H]2c3c(cc(/C=C/c4cc(O)c(O)cc4-c4c(O)cc(/C=C/c5ccc(O)c(O)c5)oc4=O)oc3=O)O[C@@H]2c2ccc(O)c(O)c2)o1` [PHELLINSTATIN]: the minimal inhibitory concentration (MIC) in the test on Staphylococcus aureus [4] and in the test with Staphylococcus aureus [6] was 128 µg/mL (≈ 174 µM) in each case. In addition, the inhibition entry in test [5] is “Dose-dependent effect”. For the same molecule, the IC50 in test [3] worked out at 6 µM.

A word on the IC50: it is the concentration at which inhibition is half-maximal. What is called MIC is the lowest concentration that inhibits growth of the organism. High values mean weaker potency, low ones greater potency.
